Data taken from US8809537B2, “N-ethyl-4-hydroxyl-1-methyl-5-(methyl(2,3,4,5,6-pentahydroxyhexyl)amino)-2-oxo-N-phenyl-1,2-dihydroquinoline-3-carboxamide” (Teva Pharmaceutical Industries, Ltd., priority 2012, dated 2014).
Each block holds one compound with its values, some of them ahead of it.

What was measured:
[1] = formation of MEG-LAQ in LAQ formulation containing meglumine (stability); type: physicochemical; details: meglumine used in LAQ formulation
Description: MEG-LAQ may form under certain conditions when meglumine is used in LAQ formulation. For example, MEG-LAQ is formed at 40° C. and 75% Relative Humidity (accelerated conditions). MEG-LAQ is also formed at room temperature at <0.1%.

[2] = tested on: acute experimental autoimmune encephalomyelitis (aEAE) model; details: U.S. Pat. No. 6,077,851; cited from earlier work
relapsing MS = details: Polman et al. 2005; cited from earlier work
[3] = cited from earlier work

MEG-LAQ formed in LAQ formulation ([1]; 40° C. and 75% Relative Humidity (accelerated conditions)): formed
MEG-LAQ formed in LAQ formulation ([1]; room temperature): < 0.1%
Compound: CCN(C(=O)c1c(O)c2c(N(C)C[C@H](O)[C@@H](O)[C@H](O)[C@H](O)CO)cccc2n(C)c1=O)c1ccccc1 [MEG-LAQ, N-ethyl-4-hydroxyl-1-methyl-5-(methyl(2,3,4,5,6-pentahydroxyhexyl)amino)-2-oxo-N-phenyl-1,2-dihydroquinoline-3-carboxamide]

Compound: CCN(C(=O)c1c(O)c2c(Cl)cccc2n(C)c1=O)c1ccccc1 [Laquinimod, N-ethyl-N-phenyl-1,2-dihydro-4-hydroxy-5-chloro-1-methyl-2-oxoquinoline-3-carboxamide]
effectiveness in the aEAE model [2]: effective
development of active MRI lesions (relapsing MS): can reduce development of active MRI lesions

Compound: CCN(C(=O)c1c(O)c2c(Cl)cccc2n(C)c1=O)c1ccccc1 [Laquinimod sodium]
oral bioavailability [3]: high oral bioavailability
